Results as given in the supplement of paper PMC4862054.

What was measured:
CAL-85-1 = test: normalised viability (% of control), CellTiter-Blue; higher = more viable cells (about 100 = DMSO control); conditions: 10 nM; incubation time: 72 h
Description: (§1)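 DSRT, CellTiter-Blue viability, 72 h incubation. Signal is normalised to DMSO and benzethonium chloride controls. Value is the normalised response at dose 3.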

DU-4475 [1] = test: as above; conditions: 10 nM; incubation time: 72 h
Description: as §1

BT-549 [2] = test: as above; conditions: 100 nM; incubation time: 72 h
Description: as §1

SK-BR-3 = test: as above; conditions: 100 nM; incubation time: 72 h
Description: as §1

MDA-MB-231 = test: as above; conditions: 100 nM; incubation time: 72 h
Description: as §1

MDA-MB-453 = test: as above; conditions: 10 nM; incubation time: 72 h
Description: as §1

HCC1143 = test: as above; conditions: 100 nM; incubation time: 72 h
Description: as §1

BT-474 [3] = test: as above; conditions: 100 nM; incubation time: 72 h
Description: as §1

HCC1937 [4] = test: as above; conditions: 100 nM; incubation time: 72 h
Description: as §1

CAL-148 [5] = test: as above; conditions: 10 nM; incubation time: 72 h
Description: as §1

HCC1599 [6] = test: as above; conditions: 100 nM; incubation time: 72 h
Description: as §1

CAL-51 = test: as above; conditions: 10 nM; incubation time: 72 h
Description: as §1

MFM-223 = test: as above; conditions: 100 nM; incubation time: 72 h
Description: as §1

Hs578T [7] = test: as above; conditions: 100 nM; incubation time: 72 h
Description: as §1

CAL-120 [8] = test: as above; conditions: 100 nM; incubation time: 72 h
Description: as §1

MDA-MB-436 [9] = test: as above; conditions: 100 nM; incubation time: 72 h
Description: as §1

MDA-MB-468 [10] = test: as above; conditions: 100 nM; incubation time: 72 h
Description: as §1

HDQ-P1 [11] = test: as above; conditions: 10 nM; incubation time: 72 h
Description: as §1

CAL-148 [12] = test: normalised viability (% of control), CellTiter-Blue; higher = more viable cells (about 100 = DMSO control); conditions: incubation time: 72 h
Summary of the method: (§2)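 Vehicle (100) and a positive kill control (0) anchored the normalisation of each plate, and Z'-factor was used for quality control. Breast cancer cell lines in 20 µl suspension were incubated 72 h over compound in 5 µl medium in 384-well plates, followed by CellTiter-Blue at 560/590 nm. The value is normalised viability at a single listed concentration of the series.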

CAL-120 [13] = test: as above; conditions: incubation time: 72 h
Summary of the method: as §2

DU-4475 [14] = test: normalised response (% of control), CellTiter-Glo; higher = more viable cells (100 = DMSO, 0 = benzethonium chloride kill control); conditions: incubation time: 72 h
Summary of the method: (§3)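 For each plate, 0.1 % DMSO was set to 100 and a positive kill control to 0. Breast cancer cell lines (20 µl suspension) were seeded into 384-well plates already holding compound at 5 concentrations in 10-fold steps over a 10,000-fold range chosen per compound, and incubated for 72 h. CellTox Green fluorescence at 485/520 nm was read before CellTiter-Glo luminescence, which followed 10 min at room temperature. Each value is the normalised signal at one concentration.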

BT-549 [15] = test: as above; conditions: incubation time: 72 h
Summary of the method: as §3

BT-474 [16] = test: as above; conditions: incubation time: 72 h
Summary of the method: as §3

HCC1937 [17] = test: as above; conditions: incubation time: 72 h
Summary of the method: as §3

CAL-148 [18] = test: as above; conditions: incubation time: 72 h
Summary of the method: as §3

HCC1599 [19] = test: as above; conditions: incubation time: 72 h
Summary of the method: as §3

Hs578T [20] = test: as above; conditions: incubation time: 72 h
Summary of the method: as §3

MDA-MB-436 [21] = test: as above; conditions: incubation time: 72 h
Summary of the method: as §3

MDA-MB-468 [22] = test: as above; conditions: incubation time: 72 h
Summary of the method: as §3

HDQ-P1 [23] = test: as above; conditions: incubation time: 72 h
Summary of the method: as §3

Row | SMILES | normalised viability (CAL-85-1) | normalised viability (DU-4475 [1]) | normalised viability (BT-549 [2]) | normalised viability (SK-BR-3) | normalised viability (MDA-MB-231) | normalised viability (MDA-MB-453) | normalised viability (HCC1143) | normalised viability (BT-474 [3]) | normalised viability (HCC1937 [4]) | normalised viability (CAL-148 [5]) | normalised viability (HCC1599 [6]) | normalised viability (CAL-51) | normalised viability (MFM-223) | normalised viability (Hs578T [7]) | normalised viability (CAL-120 [8]) | normalised viability (MDA-MB-436 [9]) | normalised viability (MDA-MB-468 [10]) | normalised viability (HDQ-P1 [11]) | normalised viability (CAL-148 [12]; 3 nM) | normalised viability (CAL-148 [12]; 30 nM) | normalised viability (CAL-148 [12]; 100 nM) | normalised viability (CAL-120 [13]; 10 nM) | normalised viability (CAL-120 [13]; 1000 nM) | normalised viability (CAL-120 [13]; 10000 nM) | normalised response (DU-4475 [14]) | normalised response (BT-549 [15]) | normalised response (BT-474 [16]) | normalised response (HCC1937 [17]) | normalised response (CAL-148 [18]) | normalised response (HCC1599 [19]) | normalised response (Hs578T [20]) | normalised response (MDA-MB-436 [21]) | normalised response (MDA-MB-468 [22]) | normalised response (HDQ-P1 [23])
1 | CN1CCC(COc2cnc(-c3cccc(Cn4nc(-c5cccc(C#N)c5)ccc4=O)c3)nc2)CC1 | 94.4% | 98.3% | 81.5% | 68.9% | 83.4% | 89.3% | 109% | 102% | 94% | 79.1% | 116% | 92.9% | 96.9% | 76.3% | 108% | 92.3% | 95% | 86.3% | 85.8% | 83.2% | 94.2% | 97.3% | 116% | 11.8% |  |  |  |  |  |  |  |  |  | 
2 | CN(C)C/C=C/C(=O)Nc1cc2c(Nc3ccc(F)c(Cl)c3)ncnc2cc1O[C@H]1CCOC1 [Afatinib] | 84.7% | 95.1% | 104% | 15.2% | 90.3% | 81.4% | 71% | 34.8% | 93.4% | 79.9% | 84.6% | 107% | 84.8% | 84.2% | 71.8% | 84.7% | 60.9% | 94.3% | 83.2% | 72.9% | 72.5% | 71.8% | 66.1% | 13.2% |  |  |  |  |  |  |  |  |  | 
3 | CN1CC[C@H](c2c(O)cc(O)c3c(=O)cc(-c4ccccc4Cl)oc23)[C@H](O)C1 [Alvocidib] | 93.8% | 93% | 95.6% | 46.9% | 82.9% | 98.1% | 69.7% | 96.4% | 69.4% | 85.4% | 82.4% | 103% | 76.3% | 51.5% | 68.2% | 99.7% | 91.5% | 106% | 86% | 89.6% | 70.8% | 67.7% | 10.7% | 11.1% |  |  |  |  |  |  |  |  |  | 
4 | CN1CC[C@H](c2c(O)cc(O)c3c(=O)cc(-c4ccccc4Cl)oc23)[C@H](O)C1 [Alvocidib] (1000 nM) |  |  |  |  |  |  |  |  |  |  |  |  |  |  |  |  |  |  |  |  |  |  |  |  | 10.1% | 5.76% | 20% | 29.1% | 26.1% | 17.2% | 10.1% | 14.2% | 8.32% | 19.8%
5 | Nc1nc(Cl)nc2c1ncn2[C@H]1C[C@H](O)[C@@H](CO)O1 [Cladribine] (100 nM) |  |  |  |  |  |  |  |  |  |  |  |  |  |  |  |  |  |  |  |  |  |  |  |  | 101% | 77.7% | 97.1% | 90.3% | 97.8% | 112% | 100% | 104% | 93.8% | 97.5%
6 | Nc1ccn([C@@H]2O[C@H](CO)[C@@H](O)[C@@H]2O)c(=O)n1 [Cytarabine] (1000 nM) |  |  |  |  |  |  |  |  |  |  |  |  |  |  |  |  |  |  |  |  |  |  |  |  | 77.8% | 61.9% | 90.6% | 85.2% | 55.5% | 93.4% | 81.6% | 46.4% | 74.3% | 92%
7 | Cc1c2oc3c(C)ccc(C(=O)N[C@@H]4C(=O)N[C@H](C(C)C)C(=O)N5CCC[C@H]5C(=O)N(C)CC(=O)N(C)[C@@H](C(C)C)C(=O)O[C@@H]4C)c3nc-2c(C(=O)N[C@@H]2C(=O)N[C@H](C(C)C)C(=O)N3CCC[C@H]3C(=O)N(C)CC(=O)N(C)[C@@H](C(C)C)C(=O)O[C@@H]2C)c(N)c1=O [Dactinomycin] (100 nM) |  |  |  |  |  |  |  |  |  |  |  |  |  |  |  |  |  |  |  |  |  |  |  |  | 0.24% | 6.05% | 6.79% | 18.9% | 2.05% | 8.92% | 7.79% | 17% | 3.22% | 21.8%
